# Reference: ChEMBL document CHEMBL1201862, “PubChem BioAssay data set” (2004)
# Activity calls are given as the source filed them.
# Columns and labels:
# Exodeoxyribonuclease V = target: T1, Exodeoxyribonuclease V (Escherichia coli (strain K12), UniProt P04993+P07648+P08394); assay: RecBCD inhibition via phage-restricted bacterial growth – absorbance, V66 E. coli, mutant T4 phage, counter-screen for AddAB inhibitor project, dose response (AID 492957); format: functional, cell-based, Escherichia coli str. K-12 substr. MG1655
# T1 sequence (P04993 whole entry): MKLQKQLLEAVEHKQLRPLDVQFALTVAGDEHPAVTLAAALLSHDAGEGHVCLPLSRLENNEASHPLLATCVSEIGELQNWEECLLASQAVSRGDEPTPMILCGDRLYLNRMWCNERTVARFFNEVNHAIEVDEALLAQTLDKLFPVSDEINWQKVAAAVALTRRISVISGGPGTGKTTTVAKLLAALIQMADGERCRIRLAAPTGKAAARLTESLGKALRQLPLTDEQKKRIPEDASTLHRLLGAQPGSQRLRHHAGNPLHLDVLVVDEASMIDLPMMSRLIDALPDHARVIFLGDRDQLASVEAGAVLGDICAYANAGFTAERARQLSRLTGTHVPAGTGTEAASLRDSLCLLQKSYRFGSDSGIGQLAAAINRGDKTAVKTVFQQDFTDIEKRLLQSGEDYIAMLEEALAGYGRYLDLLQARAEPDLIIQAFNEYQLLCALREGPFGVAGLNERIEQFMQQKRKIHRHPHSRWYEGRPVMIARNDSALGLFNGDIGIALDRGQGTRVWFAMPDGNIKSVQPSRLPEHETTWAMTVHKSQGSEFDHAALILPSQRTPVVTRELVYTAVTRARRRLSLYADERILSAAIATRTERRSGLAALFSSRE
# T1 sequence (P07648 whole entry): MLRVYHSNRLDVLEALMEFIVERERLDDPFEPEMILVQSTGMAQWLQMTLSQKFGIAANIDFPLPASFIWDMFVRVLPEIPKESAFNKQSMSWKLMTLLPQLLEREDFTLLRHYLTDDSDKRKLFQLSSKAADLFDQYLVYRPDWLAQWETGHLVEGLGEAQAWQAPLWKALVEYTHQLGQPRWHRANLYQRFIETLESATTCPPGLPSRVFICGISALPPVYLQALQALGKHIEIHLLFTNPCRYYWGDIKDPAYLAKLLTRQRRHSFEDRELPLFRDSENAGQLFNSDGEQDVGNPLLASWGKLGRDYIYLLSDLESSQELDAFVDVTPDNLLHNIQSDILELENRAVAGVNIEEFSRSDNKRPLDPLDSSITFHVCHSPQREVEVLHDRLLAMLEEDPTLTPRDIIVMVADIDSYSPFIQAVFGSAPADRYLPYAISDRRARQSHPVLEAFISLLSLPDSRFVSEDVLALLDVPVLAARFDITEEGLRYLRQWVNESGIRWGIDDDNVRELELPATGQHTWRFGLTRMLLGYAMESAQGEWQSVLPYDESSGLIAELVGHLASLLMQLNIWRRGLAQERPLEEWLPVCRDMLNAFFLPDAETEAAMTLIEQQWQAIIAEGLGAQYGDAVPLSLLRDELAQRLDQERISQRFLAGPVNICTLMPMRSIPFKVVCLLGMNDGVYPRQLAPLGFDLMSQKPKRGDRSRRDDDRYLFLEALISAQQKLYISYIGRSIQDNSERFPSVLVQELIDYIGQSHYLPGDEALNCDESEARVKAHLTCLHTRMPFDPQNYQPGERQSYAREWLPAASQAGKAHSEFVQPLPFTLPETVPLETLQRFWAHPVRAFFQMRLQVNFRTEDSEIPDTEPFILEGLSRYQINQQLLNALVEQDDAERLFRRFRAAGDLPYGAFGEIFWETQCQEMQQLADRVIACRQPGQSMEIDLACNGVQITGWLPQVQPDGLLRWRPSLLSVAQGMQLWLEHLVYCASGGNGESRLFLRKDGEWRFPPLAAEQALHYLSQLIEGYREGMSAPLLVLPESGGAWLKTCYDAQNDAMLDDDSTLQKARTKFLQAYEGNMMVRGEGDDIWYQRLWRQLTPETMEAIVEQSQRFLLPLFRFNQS
# T1 sequence (P08394 whole entry): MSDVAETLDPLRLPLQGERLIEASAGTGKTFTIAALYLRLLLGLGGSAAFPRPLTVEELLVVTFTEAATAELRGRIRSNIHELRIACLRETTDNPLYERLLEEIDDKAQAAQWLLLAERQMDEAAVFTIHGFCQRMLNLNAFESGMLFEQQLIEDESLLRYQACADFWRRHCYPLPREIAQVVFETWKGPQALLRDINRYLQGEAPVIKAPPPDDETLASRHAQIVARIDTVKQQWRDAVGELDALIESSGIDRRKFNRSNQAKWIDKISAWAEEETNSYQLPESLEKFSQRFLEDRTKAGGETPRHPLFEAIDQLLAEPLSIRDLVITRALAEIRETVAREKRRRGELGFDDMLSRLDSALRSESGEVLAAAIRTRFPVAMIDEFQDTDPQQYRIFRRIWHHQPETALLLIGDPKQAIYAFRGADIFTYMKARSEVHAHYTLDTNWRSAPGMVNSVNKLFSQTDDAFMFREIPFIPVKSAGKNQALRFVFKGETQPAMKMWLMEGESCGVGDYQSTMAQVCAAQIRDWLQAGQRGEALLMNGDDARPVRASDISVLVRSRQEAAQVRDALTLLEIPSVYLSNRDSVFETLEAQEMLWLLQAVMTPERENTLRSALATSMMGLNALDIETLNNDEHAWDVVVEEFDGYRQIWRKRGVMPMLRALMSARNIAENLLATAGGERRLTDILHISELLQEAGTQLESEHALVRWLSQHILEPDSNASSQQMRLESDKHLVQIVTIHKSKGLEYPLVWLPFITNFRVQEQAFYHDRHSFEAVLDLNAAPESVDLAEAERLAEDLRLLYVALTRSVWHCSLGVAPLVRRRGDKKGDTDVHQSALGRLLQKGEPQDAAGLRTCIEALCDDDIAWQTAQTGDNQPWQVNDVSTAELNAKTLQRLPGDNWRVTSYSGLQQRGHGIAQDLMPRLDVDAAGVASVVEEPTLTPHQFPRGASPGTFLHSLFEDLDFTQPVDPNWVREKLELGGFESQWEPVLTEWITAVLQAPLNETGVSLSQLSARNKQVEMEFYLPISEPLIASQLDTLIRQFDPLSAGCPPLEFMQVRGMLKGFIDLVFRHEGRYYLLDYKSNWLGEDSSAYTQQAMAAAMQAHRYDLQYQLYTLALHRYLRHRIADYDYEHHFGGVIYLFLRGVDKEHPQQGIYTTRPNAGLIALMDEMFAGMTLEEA
# [1] = Counterscreen for AddAB inhibitors: absorbance-based bacterial cell-based high throughput dose response assay for inhibitors of bacterial viability. [Related pubchem assays (depositor defined):AID435030, AID449728, AID449731, AID488942, AID488955, AID488956]; format: functional
# [2] = reduction of Shn3 3'UTR-driven luciferase in osteoblasts – cell-based, Clone20 osteoblasts, firefly luciferase, cherry-picked, dose response (AID 624132); format: functional;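 further: firefly luciferase luminescence from reporter carrying the Shn3 3'UTR in osteoblasts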
compound,measurement,setting,value
CCCCC(=O)NC(c1ccc(N(C)C)cc1)c1ccc2cccnc2c1O (stereo not drawn),IC50,Exodeoxyribonuclease V,> 119 µM (inactive)
same,IC50,[1],> 119 µM (inactive)
same,AC50,[2],0.98 µM (active)
